Laboratory results reported in patent publication US8318781B2, “G-protein-conjugated receptor agonist” (Japan Science and Technology Agency, priority 2007, dated 2012).

Legend:
human GPR120 (hGPR120) [1] = target: T1, human GPR120 (hGPR120) (Homo sapiens, UniProt Q5NUL3); assay: Determination of intracellular Ca2+ concentration (FLIPR), cell line TXGPR120; type: cell-based; settings: for selectivity between GPR40 and GPR120 (in words), from Tables 3 and 4: GPR40 versus GPR120, Ca2+ and ERK results; for EC50 / [Ca^2+]/GPR120 10 μM (ratio vs. LA): TXGPR120 cells; for EC50: maximum fluorescence intensity vs ligand concentration, read-out: [Ca^2+]/GPR120 pEC50 (converted); for agonistic activity for hGPR120 (in words): cells in which GPR120 has been transgenically expressed; for [Ca^2+]/GPR120 10 μM (ratio vs. LA): relative fluorescence intensity vs LA at 10 μM
T1 construct: expressed in transfected cells; doxycycline-inducible expression vector
T1 sequence (Q5NUL3 1-361): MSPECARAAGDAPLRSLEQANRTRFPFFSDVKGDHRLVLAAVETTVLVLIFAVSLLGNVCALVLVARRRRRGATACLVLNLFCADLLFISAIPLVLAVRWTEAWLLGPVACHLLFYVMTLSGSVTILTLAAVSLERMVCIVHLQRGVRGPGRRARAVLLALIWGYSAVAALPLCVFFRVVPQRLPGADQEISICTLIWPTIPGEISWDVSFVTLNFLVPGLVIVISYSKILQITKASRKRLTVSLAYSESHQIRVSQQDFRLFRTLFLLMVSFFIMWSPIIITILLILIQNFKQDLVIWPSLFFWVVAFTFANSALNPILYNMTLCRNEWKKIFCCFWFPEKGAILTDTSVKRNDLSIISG

human GPR120 (hGPR120) [2] = target: T1, human GPR120 (hGPR120); assay: Determination of intracellular Ca2+ concentration (FLIPR), cell line GPR120/Flp-in; type: cell-based; settings: GPR120/Flp-in cells; for EC50: maximum fluorescence intensity vs ligand concentration, read-out: [Ca^2+]/GPR120/Flp-In pEC50 (converted); for [Ca^2+]/GPR120/Flp-In 10 μM (ratio vs. LA): relative fluorescence intensity vs LA at 10 μM

Structure (SMILES) | selectivity between GPR40 and GPR120 (in words), from Tables 3 and 4 (human GPR120 (hGPR120) [1]) | EC50 (human GPR120 (hGPR120) [1]) | agonistic activity for hGPR120 (in words) (human GPR120 (hGPR120) [1]) | [Ca^2+]/GPR120 10 μM (ratio vs. LA) (human GPR120 (hGPR120) [1]) | EC50 (human GPR120 (hGPR120) [2]) | [Ca^2+]/GPR120/Flp-In 10 μM (ratio vs. LA) (human GPR120 (hGPR120) [2])
O=C(O)CCCc1ccc(OCCN(c2ccccc2)c2nccs2)cc1 [NCG46] | acting relatively mildly for GPR40 but acting strongly for GPR120 | 5.25 µM | exhibit a similar effect | 1.60 | 1.66 µM | 1.06
CN(C)c1ccc(N(CCOc2ccc(CCCC(=O)O)cc2)c2ccccn2)cc1 [NCG54] | acting relatively mildly for GPR40 but acting strongly for GPR120 | 15.8 µM | exhibit a similar effect | 0.66 | 2.4 µM | 0.92
